From the supplement of paper PMC10307832

How the values were obtained:
Assay in all cases: relative viability (nuclei count vs DMSO), 5 days (fraction); higher = more cells survive
201T = system: 201T
In short: (§1)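 Lung cancer cell lines were pin-tool dosed in 1536-well plates on the day after seeding, with either a lone drug or a fixed anchor-drug dose plus five library-drug doses (not always all listed) in √10 steps. Nuclei were counted on 4× images after 5 days. Relative viability is the ratio of treated-well to vehicle-well nuclei counts, with each value a median of duplicate plates.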

NCI-H2342 = system: NCI-H2342
In short: as §1

H3255 = system: H3255
In short: as §1

EKVX = system: EKVX
In short: as §1

HCC-44 = system: HCC-44
In short: as §1

EPLC-272H = system: EPLC-272H
In short: as §1

HCC-827 = system: HCC-827
In short: as §1

NCI-H647 = system: NCI-H647
In short: as §1

BEN = system: BEN
In short: as §1

NCI-H1975 = system: NCI-H1975
In short: as §1

NCI-H1666 = system: NCI-H1666
In short: as §1

NCI-H1437 = system: NCI-H1437
In short: as §1

NCI-H650 = system: NCI-H650
In short: as §1

LOU-NH91 = system: LOU-NH91
In short: as §1

LU99A = system: LU99A
In short: as §1

NCI-H2170 = system: NCI-H2170
In short: as §1

NCI-H2085 = system: NCI-H2085
In short: as §1

SW 1573 = system: SW 1573
In short: as §1

COR-L 105 = system: COR-L 105
In short: as §1

LCLC-97TM1 = system: LCLC-97TM1
In short: as §1

NCI-H2087 = system: NCI-H2087
In short: as §1

PC-3 [JPC-3] = system: PC-3 [JPC-3]
In short: as §1

COc1cc2nccc(Oc3ccc(NC(=O)Nc4cc(C)on4)c(Cl)c3)c2cc1OC [Tivozanib] + CC(=O)c1c(C)c2cnc(Nc3ccc(N4CCNCC4)cn3)nc2n(C2CCCC2)c1=O [Palbociclib] (partner 0.5 µM)
relative viability (201T; first compound 0.005 µM): 0.395
relative viability (201T; first compound 0.01581 µM): 0.39
relative viability (201T; first compound 0.05 µM): 0.366
relative viability (201T; first compound 0.1581 µM): 0.373
relative viability (201T; first compound 0.5 µM): 0.357
relative viability (NCI-H2342; first compound 0.005 µM): 0.495
relative viability (NCI-H2342; first compound 0.01581 µM): 0.524
relative viability (NCI-H2342; first compound 0.05 µM): 0.536
relative viability (NCI-H2342; first compound 0.5 µM): 0.469
relative viability (H3255; first compound 0.005 µM): 0.313
relative viability (H3255; first compound 0.01581 µM): 0.356
relative viability (H3255; first compound 0.05 µM): 0.294
relative viability (H3255; first compound 0.1581 µM): 0.334
relative viability (H3255; first compound 0.5 µM): 0.328
relative viability (EKVX; first compound 0.005 µM): 0.37
relative viability (EKVX; first compound 0.01581 µM): 0.455
relative viability (EKVX; first compound 0.05 µM): 0.449
relative viability (EKVX; first compound 0.1581 µM): 0.291
relative viability (EKVX; first compound 0.5 µM): 0.407
relative viability (HCC-44; first compound 0.005 µM): 0.958
relative viability (HCC-44; first compound 0.01581 µM): 0.914
relative viability (HCC-44; first compound 0.05 µM): 0.989
relative viability (HCC-44; first compound 0.1581 µM): 0.987
relative viability (HCC-44; first compound 0.5 µM): 0.922
relative viability (EPLC-272H; first compound 0.005 µM): 0.268
relative viability (EPLC-272H; first compound 0.01581 µM): 0.303
relative viability (EPLC-272H; first compound 0.05 µM): 0.35
relative viability (EPLC-272H; first compound 0.1581 µM): 0.348
relative viability (EPLC-272H; first compound 0.5 µM): 0.282
relative viability (HCC-827; first compound 0.005 µM): 0.498
relative viability (HCC-827; first compound 0.01581 µM): 0.506
relative viability (HCC-827; first compound 0.05 µM): 0.539
relative viability (HCC-827; first compound 0.1581 µM): 0.448
relative viability (HCC-827; first compound 0.5 µM): 0.412
relative viability (NCI-H647; first compound 0.005 µM): 0.396
relative viability (NCI-H647; first compound 0.01581 µM): 0.391
relative viability (NCI-H647; first compound 0.05 µM): 0.3
relative viability (NCI-H647; first compound 0.1581 µM): 0.32
relative viability (NCI-H647; first compound 0.5 µM): 0.35
relative viability (BEN; first compound 0.005 µM): 0.508
relative viability (BEN; first compound 0.01581 µM): 0.497
relative viability (BEN; first compound 0.05 µM): 0.453
relative viability (BEN; first compound 0.1581 µM): 0.44
relative viability (BEN; first compound 0.5 µM): 0.459
relative viability (NCI-H1975; first compound 0.005 µM): 0.585
relative viability (NCI-H1975; first compound 0.01581 µM): 0.609
relative viability (NCI-H1975; first compound 0.05 µM): 0.648
relative viability (NCI-H1975; first compound 0.1581 µM): 0.341
relative viability (NCI-H1975; first compound 0.5 µM): 0.509
relative viability (NCI-H1666; first compound 0.005 µM): 0.628
relative viability (NCI-H1666; first compound 0.01581 µM): 0.666
relative viability (NCI-H1666; first compound 0.05 µM): 0.639
relative viability (NCI-H1666; first compound 0.1581 µM): 0.668
relative viability (NCI-H1666; first compound 0.5 µM): 0.642
relative viability (NCI-H1437; first compound 0.005 µM): 0.364
relative viability (NCI-H1437; first compound 0.01581 µM): 0.344
relative viability (NCI-H1437; first compound 0.05 µM): 0.286
relative viability (NCI-H1437; first compound 0.1581 µM): 0.368
relative viability (NCI-H1437; first compound 0.5 µM): 0.26
relative viability (NCI-H650; first compound 0.005 µM): 0.297
relative viability (NCI-H650; first compound 0.01581 µM): 0.391
relative viability (NCI-H650; first compound 0.05 µM): 0.338
relative viability (NCI-H650; first compound 0.1581 µM): 0.377
relative viability (NCI-H650; first compound 0.5 µM): 0.27
relative viability (LOU-NH91; first compound 0.005 µM): 0.431
relative viability (LOU-NH91; first compound 0.01581 µM): 0.498
relative viability (LOU-NH91; first compound 0.05 µM): 0.513
relative viability (LOU-NH91; first compound 0.1581 µM): 0.549
relative viability (LOU-NH91; first compound 0.5 µM): 0.538
relative viability (LU99A; first compound 0.005 µM): 0.431
relative viability (LU99A; first compound 0.01581 µM): 0.412
relative viability (LU99A; first compound 0.05 µM): 0.429
relative viability (LU99A; first compound 0.1581 µM): 0.306
relative viability (LU99A; first compound 0.5 µM): 0.408
relative viability (NCI-H2170; first compound 0.005 µM): 0.398
relative viability (NCI-H2170; first compound 0.01581 µM): 0.392
relative viability (NCI-H2170; first compound 0.05 µM): 0.414
relative viability (NCI-H2170; first compound 0.5 µM): 0.388
relative viability (NCI-H2085; first compound 0.005 µM): 0.458
relative viability (NCI-H2085; first compound 0.01581 µM): 0.478
relative viability (NCI-H2085; first compound 0.05 µM): 0.512
relative viability (NCI-H2085; first compound 0.1581 µM): 0.512
relative viability (NCI-H2085; first compound 0.5 µM): 0.503
relative viability (SW 1573; first compound 0.005 µM): 0.344
relative viability (SW 1573; first compound 0.01581 µM): 0.412
relative viability (SW 1573; first compound 0.05 µM): 0.418
relative viability (SW 1573; first compound 0.1581 µM): 0.391
relative viability (SW 1573; first compound 0.5 µM): 0.344
relative viability (COR-L 105; first compound 0.005 µM): 0.411
relative viability (COR-L 105; first compound 0.01581 µM): 0.436
relative viability (COR-L 105; first compound 0.05 µM): 0.433
relative viability (COR-L 105; first compound 0.1581 µM): 0.404
relative viability (COR-L 105; first compound 0.5 µM): 0.415
relative viability (LCLC-97TM1; first compound 0.005 µM): 0.233
relative viability (LCLC-97TM1; first compound 0.01581 µM): 0.245
relative viability (LCLC-97TM1; first compound 0.05 µM): 0.193
relative viability (LCLC-97TM1; first compound 0.1581 µM): 0.268
relative viability (LCLC-97TM1; first compound 0.5 µM): 0.214
relative viability (NCI-H2087; first compound 0.005 µM): 0.271
relative viability (NCI-H2087; first compound 0.01581 µM): 0.288
relative viability (NCI-H2087; first compound 0.05 µM): 0.259
relative viability (NCI-H2087; first compound 0.1581 µM): 0.231
relative viability (NCI-H2087; first compound 0.5 µM): 0.231
relative viability (PC-3 [JPC-3]; first compound 0.01581 µM): 0.55
relative viability (PC-3 [JPC-3]; first compound 0.05 µM): 0.554
relative viability (PC-3 [JPC-3]; first compound 0.1581 µM): 0.609
relative viability (PC-3 [JPC-3]; first compound 0.5 µM): 0.55
